The numbers were not newly measured in patent US12357667B2, “Nutraceutical formulations to prevent, treat, and inhibit excess cytokines, SARS-CoV-2 spike proteins, and mRNA vaccine spike proteins” (priority 2021, dated 2025), which cites them from elsewhere.

The test system of series [1] is variant spikes from the SARS-CoV-2 alpha and delta strains.
Series [2] has as its system SARS-CoV-2 alpha variant B.1.1.7 and the beta variant B.1.351. The settings on record: alpha variant B.1.1.7 and beta variant B.1.351.

For the compound `CC(=O)N[C@@H](CS)C(=O)O` [N-acetylcysteine, reference compound], the “activity of variant spikes” value in series [1] is on record as “suppressed”.

In the case of `C=C(C)[C@@H]1CCC(C)=C[C@H]1c1c(O)cc(CCCCC)c(C(=O)O)c1O` [cannabidiolic acid], the effectiveness against variants result in series [2] is given as “equally effective”.

`CCCCCc1cc(O)c(C/C=C(\C)CCC=C(C)C)c(O)c1C(=O)O` [cannabigerolic acid]: the effectiveness against variants result in series [2] is “equally effective”.

Consider `N[C@@H](CCC(=O)N[C@@H](CS)C(=O)NCC(=O)O)C(=O)O` [glutathione, γ-glutamyl cysteinyl glycine], for which the “activity of variant spikes” value in series [1] is reported as “suppressed”.
